From patent publication US9670209B2 (ACADIA Pharmaceuticals Inc., priority 2013, dated 2017)
Marks after values point to notes of the source that are not given here.

Assays:
[1] = target: human M1 muscarinic acetylcholine receptor (Homo sapiens (Human), UniProt P11229); test: R-SAT (Receptor Selection and Amplification) assay, M1; format: cell-based; conditions: for Emax: percent efficacy vs carbachol = 100 percent, read-out: M1 EFF % AVG
Procedure: (§1) Briefly, NIH-3T3 cells were grown in 96-well tissue culture plates to 70% to 80% confluence. Cells were transfected with plasmid DNAs using Superfect Reagent (QIAGEN, Valencia, Calif.) as per the manufacturer's protocols. […] Cells were then grown in a humidified atmosphere with 5% ambient CO2 for 4 to 6 days. Media were then removed from the plates, and beta-galactosidase activity was measured by the addition of o-nitrophenyl-D-galactopyranoside (in phosphate-buffered saline with 5% NP-40 detergent). […] All data represent the mean of three wells and were analyzed using the computer program Excel Fit, and EC50 determinations were made using least-squares fit analysis with GraphPad Software Inc. (San Diego, Calif.) software.

[2] = target: human M2 muscarinic acetylcholine receptor (Homo sapiens (Human), UniProt P08172); test: R-SAT (Receptor Selection and Amplification) assay, M2; format: cell-based; conditions: for Emax: read-out: M2 EFF % AVG; for M2 PEC50 AVG: R-SAT, NIH-3T3 cells
human M2 muscarinic acetylcholine receptor, sequence (P08172 whole entry): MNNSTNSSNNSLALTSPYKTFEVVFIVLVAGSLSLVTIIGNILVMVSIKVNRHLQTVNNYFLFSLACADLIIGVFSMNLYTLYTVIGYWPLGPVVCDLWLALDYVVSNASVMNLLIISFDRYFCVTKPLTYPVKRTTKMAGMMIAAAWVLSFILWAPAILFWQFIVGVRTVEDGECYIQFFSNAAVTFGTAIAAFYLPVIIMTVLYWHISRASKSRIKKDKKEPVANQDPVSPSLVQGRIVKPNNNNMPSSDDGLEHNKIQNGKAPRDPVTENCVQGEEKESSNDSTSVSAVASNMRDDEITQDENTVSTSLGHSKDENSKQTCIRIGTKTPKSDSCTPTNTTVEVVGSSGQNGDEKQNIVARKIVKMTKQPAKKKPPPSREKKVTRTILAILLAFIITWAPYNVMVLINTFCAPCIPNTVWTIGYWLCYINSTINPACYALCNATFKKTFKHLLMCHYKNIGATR
Procedure: as §1

[3] = target: human M3 muscarinic acetylcholine receptor (Homo sapiens (Human), UniProt P20309); test: R-SAT (Receptor Selection and Amplification) assay, M3; format: cell-based; conditions: for Emax: read-out: M3 EFF % AVG; for M3 PEC50 AVG: R-SAT, NIH-3T3 cells
human M3 muscarinic acetylcholine receptor, sequence (P20309 whole entry): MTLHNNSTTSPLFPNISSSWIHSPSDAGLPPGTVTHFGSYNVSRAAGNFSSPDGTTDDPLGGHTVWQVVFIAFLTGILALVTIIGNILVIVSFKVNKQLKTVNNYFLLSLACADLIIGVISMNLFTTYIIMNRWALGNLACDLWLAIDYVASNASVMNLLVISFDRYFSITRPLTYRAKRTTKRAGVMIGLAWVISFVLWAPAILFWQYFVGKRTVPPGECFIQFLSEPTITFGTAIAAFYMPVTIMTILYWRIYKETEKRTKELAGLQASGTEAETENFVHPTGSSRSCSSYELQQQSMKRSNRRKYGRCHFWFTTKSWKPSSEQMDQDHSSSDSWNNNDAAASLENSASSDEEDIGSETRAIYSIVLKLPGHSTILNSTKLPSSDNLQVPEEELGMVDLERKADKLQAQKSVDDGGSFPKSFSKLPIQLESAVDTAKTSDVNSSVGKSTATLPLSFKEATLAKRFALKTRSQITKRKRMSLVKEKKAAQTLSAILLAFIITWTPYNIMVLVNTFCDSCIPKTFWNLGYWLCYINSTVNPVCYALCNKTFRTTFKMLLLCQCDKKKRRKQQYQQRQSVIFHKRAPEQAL
Procedure: as §1

[4] = target: M1 muscarinic receptor (Homo sapiens (Human), UniProt P11229); test: M1 GTPγS binding assay; format: biochemical; conditions: for Emax: read-out: M1 GTPγS EFF % AVG; for M1 GTPγS PEC50 AVG: GTPγS binding;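 as to Emax: efficacy relative to carbachol as 100%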
M1 muscarinic receptor, sequence (P11229 whole entry): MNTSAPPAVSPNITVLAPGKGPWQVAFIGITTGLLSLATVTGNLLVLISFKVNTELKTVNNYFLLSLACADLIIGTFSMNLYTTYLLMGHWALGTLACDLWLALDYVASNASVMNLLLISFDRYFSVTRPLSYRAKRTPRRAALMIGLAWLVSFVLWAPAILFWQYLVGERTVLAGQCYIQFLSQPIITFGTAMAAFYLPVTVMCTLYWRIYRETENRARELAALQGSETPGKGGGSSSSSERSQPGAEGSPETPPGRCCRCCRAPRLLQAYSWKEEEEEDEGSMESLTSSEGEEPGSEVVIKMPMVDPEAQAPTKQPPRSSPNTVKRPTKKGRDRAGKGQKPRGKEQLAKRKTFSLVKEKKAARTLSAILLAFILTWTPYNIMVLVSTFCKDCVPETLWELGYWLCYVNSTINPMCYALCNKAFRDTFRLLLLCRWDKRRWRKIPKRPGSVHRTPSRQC

[5] = tested on: tear secretion; test: Tear secretion (phenol red thread) in mice; format: in vivo, balb/c mice; conditions: for Tear secretion: third study (pilocarpine 24-hour study), 0.1% 5 μl drop, Pilocarpine 0.2% 20 μl drop
Procedure: The tear distance, in mm, is recorded. The mice were not anesthetized or otherwise sedated. […] Data are analyzed by repeated measures ANOVA with post-hoc Bonferroni comparisons to vehicle. […] Further details can be seen in FIG. 2.

human M1 muscarinic acetylcholine receptor, sequence (P11229 whole entry): as above

Row | Structure (SMILES) | EC50 ([1]; NIH-3T3 cells, read-out: M1 PEC50 AVG (converted)) [nM] | Emax [1] [%] | Emax [2] [%] | Emax [3] [%] | EC50 [4] [nM] | Emax [4] [%] | M1 PEC50 AVG ([1]; NIH-3T3 cells) | M2 PEC50 AVG [2] | Tear secretion compared to vehicle ([5]; pilocarpine 24-hour study, 3 and 6 hours post-dosing) | Tear secretion ([5]; 3 hr post-dosing) [% *] | Tear secretion ([5]; 6 hr post-dosing) [% *] | Tear secretion ([5]; 24 hr post-dosing) [%] | M3 PEC50 AVG [3] | M1 GTPγS PEC50 AVG [4]
1 | C[C@H](CN1[C@@H]2CC[C@H]1C[C@@H](OCC1CC1)C2)Cn1ncc2ccc(CO)cc21 [Compound 310s] | 31.6 | 96 | 27 | 6 | 631 | 62 |  |  |  |  |  |  |  | 
2 | Cc1nn(C[C@H](C)CN2[C@@H]3CC[C@H]2C[C@@H](OCC2CC2)C3)c2ccccc12 [Compound 316, 1-((R)-3-(3-(cyclopropylmethoxy)-8-aza-bicyclo[3.2.1]octan-8-yl)-2-methylpropyl)-3-methyl-1H-indazole] |  | 78 | 81 | 5 | 31.6 | 88 | 7.9 | 6.6 |  |  |  |  |  | 
3 | COC/C=C1\C[C@H]2CC[C@@H](C1)N2C[C@@H](C)Cn1ncc2ccccc21 [Compound 320s, 1-((R)-3-((1R,3R,58)-3-(2-methoxyethylidene)-8-azabicyclo[3.2.1]octan-8-yl)-2-methylpropyl)-1H-indazole] |  | 109 | 90 | 8 | 158 | 60 | 8.2 | 7.2 |  |  |  |  |  | 
4 | CCCO[C@H]1C[C@H]2CC[C@@H](C1)N2C[C@@H](C)Cn1ncc2ccccc21 [Compound 319s, 1-((R)-3-(3-(propoxy)-8-aza-bicyclo[3.2.1]octan-8-yl)-2-methylpropyl)-1H-indazole] |  | 111 | 102 | 3 | 200 | 63 | 8.1 | 7.5 |  |  |  |  |  | 
5 | CC[C@@H]1C(=O)OC[C@@H]1Cc1cncn1C [Pilocarpine, reference compound] |  |  |  |  |  |  |  |  | statistically significant improved tear secretion | 142 | 136 | 113 |  | 
6 | Cc1ccc2c(cnn2C[C@H](C)CN2[C@@H]3CC[C@H]2C[C@@H](OCC2CC2)C3)c1 [Compound 321, 1-((R)-3-(3-(cyclopropylmethoxy)-8-aza-bicyclo[3.2.1]octan-8-yl)-2-methylpropyl)-5-methyl-1H-indazole] |  | 75 | 19 | 3 | 63.1 | 56 | 7.9 | 8.1 |  |  |  |  |  | 
7 | C[C@H](CN1[C@@H]2CC[C@H]1C[C@@H](OCC1CCC1)C2)Cn1ncc2ccccc21 [Compound 315, 1-((R)-3-(3-(cyclobutylmethoxy)-8-aza-bicyclo[3.2.1]octan-8-yl)-2-methylpropyl)-1H-indazole] |  | 100 | 47 | 5 | 50.1 | 36 | 8.1 | 7.3 |  |  |  |  |  | 
8 | Cc1cccc2cnn(C[C@H](C)CN3[C@@H]4CC[C@H]3C[C@@H](OCC3CC3)C4)c12 [Compound 317, 1-((R)-3-(3-(cyclopropylmethoxy)-8-aza-bicyclo[3.2.1]octan-8-yl)-2-methylpropyl)-7-methyl-1H-indazole] |  | 81 | 46 | 2 | 100 | 85 | 7.6 | 6.9 |  |  |  |  |  | 
9 | C#CCO[C@H]1C[C@H]2CC[C@@H](C1)N2C[C@@H](C)Cn1ncc2ccccc21 [Compound 318s, 1-((R)-3-((1R,3R,5S)-3-(prop-2-ynyloxy)-8-azabicyclo[3.2.1]octan-8-yl)-2-methylpropyl)-1H-indazole] |  | 122 | 92 | 8 | 79.4 | 66 | 8.0 | 7.2 |  |  |  |  |  | 
10 | C=CCO[C@H]1C[C@H]2CC[C@@H](C1)N2C[C@@H](C)Cn1ncc2ccc(F)cc21 [Compound 308, 1-((R)-3-(3-(Allyloxy)-8-aza-bicyclo[3.2.1]octan-8-yl)-2-methylpropyl)-6-fluoro-1H-indazole] |  | 131 | 152 | 18 |  | 66 | 8.9 | 7.4 |  |  |  |  | 6.3 | 7.1
11 | COCC[C@H]1C[C@H]2CC[C@@H](C1)N2C[C@@H](C)Cn1ncc2ccc(OC)cc21 [Compound 313, 1-((R)-3-((1R,3R,58)-3-(2-methoxyethyl)-8-azabicyclo[3.2.1]octan-8-yl)-2-methylpropyl)-6-methoxy-1H-indazole] |  | 116 | 111 | 7 | 39.8 | 49 | 8.2 | 7.3 |  |  |  |  |  | 
12 | COc1ccc2cnn(C[C@H](C)CN3[C@@H]4CC[C@H]3C[C@@H](OCC3CC3)C4)c2c1 [Compound 311] |  | 120 | 65 | 2 | 50.1 | 55 |  |  |  |  |  |  |  | 
13 | C[C@H](CN1[C@@H]2CC[C@H]1C[C@@H](OCC1CC1)C2)Cn1ncc2ccc(F)cc21 [Compound 307, 1-((R)-3-(3-(Cyclopropylmethoxy)-8-aza-bicyclo[3.2.1]octan-8-yl)-2-methylpropyl)-6-fluoro-1H-indazole] |  | 156 | 198 | 19 |  | 63 | 9.5 | 7.7 |  |  |  |  | 7.3 | 8.0
14 | CCOCC[C@H]1C[C@H]2CC[C@@H](C1)N2C[C@@H](C)Cn1ncc2ccccc21 [Compound 323, 1-((R)-3-((1R,3R,5S)-3-(2-ethoxyethyl)-8-azabicyclo[3.2.1]octan-8-yl)-2-methylpropyl)-1H-indazole] |  | 66 | 34 | -2 | 20 | 32 | 9.1 | 7.8 |  |  |  |  |  | 
15 | CCOCC[C@H]1C[C@H]2CC[C@@H](C1)N2C[C@@H](C)Cn1ncc2ccc(C)cc21 [Compound 324, 1-((R)-3-((1R,3R,5S)-3-(2-ethoxyethyl)-8-azabicyclo[3.2.1]octan-8-yl)-2-methylpropyl)-6-methyl-1H-indazole] |  | 82 | 45 | 17 | 6.31 | 31 | 9.1 | 7.9 |  |  |  |  |  | 
16 | C#CCO[C@H]1C[C@H]2CC[C@@H](C1)N2C[C@@H](C)Cn1ncc2ccc(OC)cc21 [Compound 322s, 1-((R)-3-((1R,3R,5S)-3-(prop-2-ynyloxy)-8-azabicyclo[3.2.1]octan-8-yl)-2-methylpropyl)-6-methoxy-1H-indazole] |  | 86 | 44 | 5 | 79.4 | 42 | 8.0 | 7.1 |  |  |  |  |  | 
17 | C[C@H](CN1[C@@H]2CC[C@H]1C[C@@H](OC1CCCC1)C2)Cn1ncc2ccccc21 [Compound 314s, 1-((R)-3-((1R,3R,58)-3-(cyclopentyloxy)-8-azabicyclo[3.2.1]octan-8-yl)-2-methylpropyl)-1H-indazole] |  | 104 | 74 | 8 | 25.1 | 48 | 8.4 | 7.3 |  |  |  |  |  | 
18 | COCC[C@H]1C[C@H]2CC[C@@H](C1)N2C[C@@H](C)Cn1ncc2ccc(F)cc21 [Compound 309, 1-((R)-3-(3-(2-Methoxyethyl)-8-aza-bicyclo[3.2.1]octan-8-yl)-2-methylpropyl)-6-fluoro-1H-indazole] |  | 123 | 176 | 18 |  | 53 | 9.4 | 7.5 |  |  |  |  | 6.9 | 7.3
19 | Cc1ccc2cnn(C[C@H](C)CN3[C@@H]4CC[C@H]3C[C@@H](OCC3CC3)C4)c2c1 [Compound 304, 1-((R)-3-(3-(Cyclopropylmethoxy)-8-aza-bicyclo[3.2.1]octan-8-yl)-2-methylpropyl)-6-methyl-1H-indazole] |  | 110 | 108 | 9 |  | 67 | 8.9 | 7.6 |  |  |  |  | 7.4 | 8.3
